Results from patent US11058707B2, “Methods for treating ischemic heart disease by targeting TRPV4” (Northeast Ohio Medical University, priority 2018, dated 2021).

Tests used:
WT mice subjected to MI = experiment: Myocardial infarction (LAD ligation) in WT mice treated orally with TRPV4 antagonist; echocardiography and histology; format: in vivo
Protocol: WT mice were subjected to MI by ligating LAD. MI mice were then given orally a specific TRPV4 antagonist, GSK2193874 (GSK2) (10 mg/Kg/day) or vehicle (0.01% DMSO/water).
Orally active TRPV4 antagonist GSK2193874 was given immediately after MI surgery and followed for 5 weeks.

[1] = system: human ventricular fibroblasts; experiment: TGF-b1-induced differentiation of human ventricular fibroblasts to myofibroblasts (immunofluorescence, α-SMA); format: cell-based; conditions: AB1+TGFβ1 vs TGFβ1; immunofluorescence actin/α-SMA/DAPI (FIG. 5A-5C)
[2] = given immediately after MI surgery, followed for 5 weeks, vs WT or vehicle treated mice

Row | SMILES | cardiac fibrosis (Masson's trichrome staining) at the infarct zone and remote zone (WT mice subjected to MI; GSK2 treated-MI hearts vs Vehicle treated-MI hearts (FIG. 16)) | ejection fraction (WT mice subjected to MI; [2]) | fractional shortening (WT mice subjected to MI; [2]) | cardiac function: ejection fraction (WT mice subjected to MI; post-MI WT mice, 10 mg/Kg/day orally vs vehicle (0.01% DMSO/water), echocardiography (FIG. 11A)) | cardiac function: fractional shortening (WT mice subjected to MI; post-MI WT mice, 10 mg/Kg/day orally vs vehicle (0.01% DMSO/water), echocardiography (FIG. 11B)) | TGF-b1-induced differentiation of human ventricular fibroblasts [1]
1 | O=C(NC1(c2ccccc2)CC1)c1c(CN2CCC(N3CCCCC3)CC2)c(-c2cccc(C(F)(F)F)c2)nc2cc(Br)ccc12 [GSK2193874, 3-([1,4′-bipiperidin]-1′-ylmethyl)-7-bromo-N-(1-phenylcyclopropyl)-2-[3-(trifluoromethyl)phenyl]-4-quinolinecarboxamide] | significantly reduced | preserved | preserved | preserved | preserved | –
2 | CC(C)NCCN(C(C)C)S(=O)(=O)c1ccc(Cl)cc1Cl [AB159908, 2,4-dichloro-N-isopropyl-N-(2-isopropylaminoethyl)benzenesulfonamide] | – | – | – | – | – | attenuation
